Results on 9 compounds are retold here after patent US20240391958A1, “KEANUMYCINS AND USES THEREOF IN MEDICINE AND PLANT PROTECTION” (Leibniz-Institut für Naturstoff-Forschung und …, priority 2023, published 2024).

In brackets after ≈: the same amount, converted by molar mass. Read-outs that look alike come from different tables or passages of the source. Where a SMILES comes first, the peptide text is derived from it. Bridges are numbered along the chain shown (N, C = ends). [ ]: non-standard residue; d: D form. The star is where a group is joined. Decanoyl(3R-OH) = CCCCCCC[C@@H](O)CC(=O)*; d(aThr) = C[C@@H](O)[C@@H](N)C(=O)O; Dab = NCC[C@H](N)C(=O)O; Dhb = C/C=C(\N)C(=O)O A value given as a limit tells only on which side of the number the result lay.

For one series, the system named is Candida albicans. The experiment in a line: Disk diffusion test. The class given is cell-based. The settings on record: 10 μg/mL in DMSO/MeOH, 50 μL per 9 mm hole, 24 h 37 °C. The method, then: (§1) A qualitative screen of different microorganisms was performed using a disk diffusion test. Each microorganism was plated on Mueller Hinton agar plates and 9 mm holes were punched out. The respective compounds were dissolved in the indicated solvent to yield solutions of specified concentrations. 50 μL of the respective solutions were placed in each hole. The plates were incubated for 24 h at 37° C. After incubation, the size of inhibition zones was determined.

A further series relates to Penicillium notatum. The experiment in a line: Disk diffusion test. Type of series: cell-based. The settings on record: 10 μg/mL in DMSO/MeOH, 50 μL per 9 mm hole, 24 h 37 °C; methanol alone 10 mm. The method, then:
as §1
Background: Agar diffusion results depend on both activity and mobility in agar.

The subject of series [1] is Sporobolomyces salmonicolor. The experiment in a line: Disk diffusion test. The settings on record: 10 μg/mL in DMSO/MeOH, 50 μL per 9 mm hole, 24 h 37 °C; methanol alone 10 mm. Type of series: cell-based. The method, then: as §1
Series [2] concerns Enterococcus faecalis (VRE) 1528. The experiment in a line: Disk diffusion test. The settings on record: 5 μg/mL in water, 50 μL per 9 mm hole, 24 h 37 °C. Type of series: cell-based. Here is the method:
as §1

For series [3], the system named is Staphylococcus aureus SG 511. The experiment in a line: Disk diffusion test. The class given is cell-based. The settings on record: 5 μg/mL in water, 50 μL per 9 mm hole, 24 h 37 °C. Here is the method:
as §1

Series [4] deals with Pseudomonas aeruginosa SG 137. The experiment in a line: Disk diffusion test. The class given is cell-based. The settings on record: 5 μg/mL in water, 50 μL per 9 mm hole, 24 h 37 °C. The method, then: as §1
The test system of the next series is Bacillus subtilis. The experiment in a line: Disk diffusion test. The class given is cell-based. The settings on record: 5 μg/mL in water, 50 μL per 9 mm hole, 24 h 37 °C. The method, then: as §1
The next series concerns Mycobacterium vaccae. The experiment in a line: Disk diffusion test. Type of series: cell-based. The settings on record: 5 μg/mL in water, 50 μL per 9 mm hole, 24 h 37 °C. Here is the method:
as §1

In series [5] the test system is Pseudomonas aeruginosa K799/61. Put plainly: Disk diffusion test. The settings on record: 5 μg/mL in water, 50 μL per 9 mm hole, 24 h 37 °C. Type of series: cell-based. The method, then:
as §1

The next series deals with Escherichia coli. The experiment in a line: Disk diffusion test. Type of series: cell-based. The settings on record: 5 μg/mL in water, 50 μL per 9 mm hole, 24 h 37 °C. Here is the method: as §1
Series [6] concerns Staphylococcus aureus (MRSA) 134/94. Put plainly: Disk diffusion test. Type of series: cell-based. The settings on record: 5 μg/mL in water, 50 μL per 9 mm hole, 24 h 37 °C. The method, then:
as §1

The subject of series [7] is Candida tropicalis 2021-360. The experiment in a line: Broth dilution method (EUCAST). Type of series: cell-based. The settings on record: 2021360; Candida tropicalis 2021-360, EUCAST E.DEF 9.3.2; read-out: Result of the broth dilution method assay (MIC). The method, then: (§2) The activity assay was performed using the broth dilution method according to the EUCAST DEFINITIVE DOCUMENT E.DEF 9.3.2. B. cinerea and A. solani were incubated according to the Methods for dilution antimicrobial susceptibility tests for bacteria that grow aerobically by the NCCLS. Keanumycin A was dissolved in DMSO.
(In general: Dilution methods test growth across graded concentrations, often in twofold steps.)

Series [8] concerns Candida glabrata 2021-359. The experiment in a line: Broth dilution method (EUCAST). The class given is cell-based. The settings on record: Nakaseomyces glabratus, 2021359; Candida glabrata 2021-359, EUCAST E.DEF 9.3.2; read-out: Result of the broth dilution method assay (MIC). Here is the method: as §2
Series [9] has as its system Candida parapsilosis ATCC 22019. Put plainly: Broth dilution method (EUCAST). The class given is cell-based. The settings on record: Lodderomyces parapsilosis, ATCC22019; Candida parapsilosis ATCC 22019, EUCAST E.DEF 9.3.2; read-out: Result of the broth dilution method assay (MIC). The method, then: as §2
The subject of another series is Candida auris 2021-353. Put plainly: Broth dilution method (EUCAST). The class given is cell-based. The settings on record: Candidozyma auris, 2021353; Candida auris 2021-353, EUCAST E.DEF 9.3.2; read-out: Result of the broth dilution method assay (MIC). The method, then: as §2
Series [10] has as its system Fusarium proliferatum 2021-361. Put plainly: Broth dilution method (EUCAST). Type of series: cell-based. The settings on record: 2021361; Fusarium proliferatum 2021-361, EUCAST E.DEF 9.3.2; read-out: Result of the broth dilution method assay (MIC). Here is the method: as §2
For series [11], the system named is Rhizopus arrhizus 2021-366. Put plainly: Broth dilution method (EUCAST). The settings on record: 2021366; Rhizopus arrhizus 2021-366, EUCAST E.DEF 9.3.2; read-out: Result of the broth dilution method assay (MIC). The class given is cell-based. Here is the method:
as §2

Series [12] concerns Aspergillus fumigatus ATCC 204305. Put plainly: Broth dilution method (EUCAST). The class given is cell-based. The settings on record: ATCC204305; Aspergillus fumigatus ATCC 204305, EUCAST E.DEF 9.3.2; read-out: Result of the broth dilution method assay (MIC). Here is the method: as §2
In series [13] the test system is Scedosporium apiospermum 2016-079. Put plainly: Broth dilution method (EUCAST). Type of series: cell-based. The settings on record: 2016079; Scedosporium apiospermum 2016-079, EUCAST E.DEF 9.3.2; read-out: Result of the broth dilution method assay (MIC). Here is the method: as §2
The test system of series [14] is Botrytis cinerea SF011406. Put plainly: Broth dilution method (NCCLS). Type of series: cell-based. Here is the method:
as §2

A further series relates to Candida strains. The settings on record: against Candida strains; cited from earlier work.
Series [15] can be described thus: Stability of isolated keanumycin C. Type of series: physicochemical. The settings on record: in solution or concentrated to dryness. The source says:
The inventors isolated keanumycin A (m/z 583.7892 [M+2H]2+ consistent with the molecular formula C49H84ClN11O19) and impure keanumycin B (m/z 575.7900 [M+2H]2+; C49H84ClN11O18), which could not be separated from an unknown metabolite (FIG. 1A). The inventors were also able to isolate keanumycin C (m/z 591.7866 [M+2H]2+; C49H84ClN11O20). […] Therefore, a detailed NMR analysis was only performed on keanumycin A. Important correlations in the ^1H, ^1H-correlation spectroscopy (COSY) experiment disclosed the presence of a 3,4-dihydroxylated linear fatty acid, which is a rare motif in NRLPs and only described for two other members of the syringomycin family (FIG. 2A). […] Saponification of keanumycin A under mild conditions led to the expected dechlorinated and linear lipopeptide 1, whose planar structure was confirmed by further HRMS2 experiments.

Another series has as its system C. albicans. Put plainly: Membrane permeabilization assay using SYTOX Green. Type of series: cell-based, Candida albicans. The settings on record: 4 μg mL-1 in 1% DMSO. The source says:
Only isolated cells are stained, which can be explained by the fact that the dye can also be used to distinguish dead from live cells. Scale bar=100 μm.
To finally examine if keanumycin A is a membrane-active compound, the inventors performed a membrane permeabilization assay using SYTOX Green (FIG. 6). As a cell-impermeant dye, SYTOX Green enters the cell upon loss of membrane integrity and binds to DNA, which results in fluorescently stained cells. […] Thus, the keanumycins are membrane-active compounds that disturb the structure of the fungal […].

As for `C[C@@H]1[C@H](O)[C@@H](C)/C=C/C=C/C=C/C=C/C=C/C=C/C=C/[C@H](O[C@@H]2O[C@H](C)[C@@H](O)[C@H](N)[C@@H]2O)C[C@@H]2O[C@](O)(C[C@@H](O)C[C@@H](O)[C@H](O)CC[C@@H](O)C[C@@H](O)CC(=O)O[C@H]1C)C[C@H](O)[C@H]2C(=O)O` [Amphotericin B, reference compound], the Inhibition area diameter in the series on Candida albicans stood at 21 mm; with Penicillium notatum it was 18 mm; in [1], 18 mm.
With `O=C(O)c1cn(C2CC2)c2cc(N3CCNCC3)c(F)cc2c1=O` [Ciprofloxacin, reference compound], the Inhibition area diameter is listed as 16 mm in series [2]; 17 mm in series [3]; 26 mm in [4]; 29 mm in the series with Bacillus subtilis; 22 mm in the series on Mycobacterium vaccae; 28 mm in [5]. Besides, the results for the Inhibition area diameter (in the series with Escherichia coli; in [6]) were 26 mm and 0 mm, respectively.
The term MIC denotes the smallest concentration in the dilution series that meets the test's criterion for growth inhibition. As to `OC(Cn1cncn1)(Cn1cncn1)c1ccc(F)cc1F` [Fluconazol, reference compound], the MIC was 64 µg/mL (≈ 209 µM) in [7], 2 µg/mL (≈ 6.53 µM) in [8], 2 µg/mL (≈ 6.53 µM) in series [9] and < 64 µg/mL in the series with Candida auris 2021-353.
Turning to `CC[C@@H]([C@H](C)O)n1ncn(-c2ccc(N3CCN(c4ccc(OC[C@@H]5CO[C@@](Cn6cncn6)(c6ccc(F)cc6F)C5)cc4)CC3)cc2)c1=O` [Posaconazol, reference compound], the MIC in series [10] is > 8 µg/mL; in series [7], 0.125 µg/mL (≈ 0.178 µM); in series [11], 4 µg/mL (≈ 5.71 µM); in [12] it was 0.125 µg/mL (≈ 0.178 µM); in series [8], 0.25 µg/mL (≈ 0.357 µM); in series [9], 0.06 µg/mL (≈ 0.0856 µM). Also, the MIC in series [13] is > 8 µg/mL; in the series with Candida auris 2021-353, 0.06 µg/mL (≈ 0.0856 µM).
For `C[C@@H](c1ncncc1F)[C@](O)(Cn1cncn1)c1ccc(F)cc1F` [Voriconazol, reference compound], the MIC in series [10] was 8 µg/mL (≈ 22.9 µM); in series [7], 1 µg/mL (≈ 2.86 µM); in series [11] it was > 8 µg/mL; in [12] it was 0.5 µg/mL (≈ 1.43 µM); in series [8] it was 0.06 µg/mL (≈ 0.172 µM); in [9], 0.03 µg/mL (≈ 0.0859 µM). The MIC (in series [13]; in the series on Candida auris 2021-353) was 1 µg/mL (≈ 2.86 µM) in each case.
For the compound `C/C=C(\NC(=O)[C@@H](CC(C)C)NC(=O)[C@@H](C)NC(=O)[C@H](NC(=O)[C@@H](C)NC(=O)[C@@H](CO)NC(=O)[C@H](NC(=O)[C@H](C)NC(=O)[C@@H](C)NC(=O)[C@@H](C)NC(=O)[C@H](NC(=O)[C@H](NC(=O)[C@H]1CCCN1C(=O)/C(=C/C)NC(=O)C[C@H](O)CCCCCCC)[C@H](C)CC)C(C)C)C(C)C)C(C)C)C(=O)N[C@H]1C(=O)N[C@@H](C)C(=O)N[C@@H](CCN)C(=O)N[C@H](CO)C(=O)N[C@@H](Cc2ccccc2)C(=O)O[C@@H]1C` [jessenipeptin, reference compound] ({Decanoyl(3R-OH)}-[Dhb][dP][dI][dV][dA][dA]A[dV][dS][dA][dV][dA][dL][Dhb][d(aThr)]A[Dab][dS]F; ester 15-C), the MIC is 10 µg/mL in series [14] (B. cinerea) and 5.2 µM in [14] (Botrytis cinerea, NCCLS, 22 °C, read-out: MIC).
Broadly, the IC50 is the concentration that gives 50% inhibition. On to hassallidin D, for which, in the series with Candida strains, the IC50 was 290 to 1000 nM.
With keanumycin C, in [15], the stability result is given as “slowly degrades in solution or when concentrated to dryness”.
As to tunicamycin [reference compound], the “membrane permeabilization (SYTOX Green staining)” value is reported as “membrane integrity of C. albicans is not disturbed” in the series on C. albicans and “did not cause a loss of membrane integrity” in the series on C. albicans (listed as Tunicamycin).
